Laboratory results from patent publication US7132546B2, “Aniline derivatives or salts thereof and cytokine production inhibitors containing the same” (Ishihara Sangyo Kaisha, Ltd., priority 2000, dated 2006).

Assays:
[1] = tested on: interleukin 5 (IL-5) production; experiment: Cytokine production inhibitory effect: IL-5 production by murine spleen cells treated with anti-mouse CD3 antibody and IL-2 (ELISA); type: cell-based, Balb/c mice; conditions: test compound 100 ppm, anti-CD3 antibody + IL-2, 40 to 48 hours, read-out: IL-5 production inhibitory ratio (%)
Method: (§1) Murine spleen cells were treated with anti-mouse CD3 antibody and IL-2 to induce cytokine production. The test compounds were added to the cytokine production system to evaluate their inhibitory effect. Namely, anti-mouse CD3 antibody adjusted to from 10 to 20 μg/ml with borate buffered physiological saline (pH 8.5) was pipetted into a 96-well cell culture plate in an amount of 50 μl/well and left to stand at 4° C. for 18 hours. The unreacted solution was removed, washing with Hank's buffer solution was carried out once, and IL-2 adjusted to 10 ng/ml with a RPMI liquid containing 10% fetal bovine serum (FCS) was pipetted in an amount of 50 μl/well. For the negative control group, a solution alone without anti-CD3 antibody nor IL-2 was applied. Then, the diluted solution of each of the test compounds (concentration: 100 ppm unless otherwise specified) was pipetted in an amount of 50 μl/well, and a cell suspension of 1×10^7 cells/ml, prepared from spleen of Balb/c mice (female, 7 to 10 week old) was pipetted thereinto in an amount of 100 μl/well. After cultivation in an incubator (37° C., 5% carbon dioxide gas) for from 40 to 48 hours, the culture supernatant was recovered to measure the cytokine production amount by ELISA method.
(§2) With respect to interleukin 5 (IL-5) as a typical Th2 type cytokine and interferon γ (IFN-γ) as a typical Th1 type cytokine, measurements were carried out by the following methods, respectively. Namely, quantitative determination of IL-5 was carried out by the following ELISA method. First, rat anti-mouse IL-5 antibody (Endogen Code No. MM-550C) as a primary antibody was diluted with carbonate buffer solution (pH 9.5) to 1 μg/ml, and spread in a 96 well plate (IWAKI, Code No. 3860-096) in an amount of 50 μl/well for coating at 4° C. overnight (16 to 24 hours). Then, the plate was subjected to blocking at 37° C. for 2 hours by phosphate buffered physiological saline containing 10% FCS (pH 7.2) (blocking buffer solution) (250 μl/well). The plate was washed with PBS (washing buffer) containing 0.05% Tween 20 (Nacalai Tesque, Code No. 281-51) four times, and a diluted liquid of the culture supernatant was spread in an amount of 50 μl/well, followed by incubation at room temperature for 1 hour. For preparation of a standard line, recombinant mouse IL-5 (R&D systems, Code No. 405-ML) was employed. The plate was washed with a washing buffer four times, and biotin-labeled rat anti-mouse IL-5 antibody (Pharmingen, Code No. 18062D) as a secondary antibody diluted to 0.5 μg/ml with a blocking buffer containing 0.05% Tween 20 was added thereto (50 μl/well), followed by incubation at room temperature for 1 hour. The plate was washed with a washing buffer four times, strept avidin-labeled peroxidase (ProZyme, Code No. CJ30H001) diluted 800 times with a blocking buffer containing 0.05% Tween 20 was added thereto (50 μl/well), followed by reaction at room temperature for 15 minutes. The plate was washed with a washing buffer four times, and a […] substrate solution (SIGMA, Code No. T-8665) was added thereto in an amount of 100 μl/well for color developing for from 10 to 20 minutes. A 1M sulfuric acid solution was added thereto in an amount of 100 μl/well to terminate the reaction, and absorption (wavelength 450 nm) was measured by means of micro plate reader (SPECTRA max, Wako Pure Chemicals Industries, Ltd.). Quantitative determination of IFN-γ was carried out in the same manner as the measurement of IL-5, employing rat anti-mouse IFN-γ antibody (Pharmingen, Code No. 18181D) and biotin labeled rat anti-mouse IFN-γ antibody (Pharmingen, Code NO. 18112D), as a primary antibody and a secondary antibody, respectively. For preparation of a standard line, recombinant mouse IFN-γ (GENZYME, Code No. 3485) was employed. The experiment was carried out in duplicate, and the average of the cytokine production amount was obtained. […]

[2] = tested on: interferon γ (IFN-γ) production; experiment: Cytokine production inhibitory effect: IFN-γ production by murine spleen cells treated with anti-mouse CD3 antibody and IL-2 (ELISA); type: cell-based, Balb/c mice; conditions: test compound 100 ppm, anti-CD3 antibody + IL-2, 40 to 48 hours, read-out: IFN-γ production inhibitory ratio (%)
Method: as §1, §2

SMILES	melting point [°C]	inhibition at 100 ppm [1] [%]	inhibition at 100 ppm [2] [%]
O=C(Nc1ccc(Oc2ccccn2)cc1)c1cc([N+](=O)[O-])ccc1Cl [compound 63]	198	100	100
COc1cc(NC(=O)c2cc([N+](=O)[O-])ccc2Cl)ccc1Oc1ncc(C(F)(F)F)cc1Cl [compound 109]	190 to 193	100	95
O=[N+]([O-])c1ccc(Cl)c(S(=O)(=O)Nc2ccc(Oc3ncc(C(F)(F)F)cc3Cl)cc2)c1 [compound 80]	171	100	100
Cc1cc(C23CC4CC(CC(C4)C2)C3)ccc1NC(=O)c1cc([N+](=O)[O-])ccc1Br [Compound No. 46, N-(4-(1-adamantyl)-2-methylphenyl)-2-bromo-5-nitrobenzamide]	229	100	98
COC(=O)c1cc(C(=O)Nc2ccc(C34CC5CC(CC(C5)C3)C4)cc2C)cc([N+](=O)[O-])c1 [compound 47]	178	89	95
Cc1cc(C23CC4CC(CC(C4)C2)C3)ccc1NC(=O)c1ccc(Cl)cc1Cl [compound 3]	211	79	92
CN(c1cc(NC(=O)c2cc([N+](=O)[O-])ccc2Cl)ccc1O)c1ncc(C(F)(F)F)cc1Cl [compound 129]	273 to 276	86	67
O=C(Nc1ccccc1Oc1ccccc1)c1cc([N+](=O)[O-])ccc1Cl [compound 37]	110	97	100
O=C(Nc1ccc2ncsc2c1)c1cc([N+](=O)[O-])ccc1Cl [compound 140]	242 to 244	100	100
Cc1cc(Oc2ccc(C(F)(F)F)cc2)ccc1NC(=O)c1cc([N+](=O)[O-])ccc1Cl [compound 31]	196	62	63
O=C(Nc1ccccc1-c1ccccc1)c1cc([N+](=O)[O-])ccc1Cl [compound 38]	154	86	93
Cc1cc(C23CC4CC(CC(C4)C2)C3)ccc1NS(=O)(=O)c1cc([N+](=O)[O-])ccc1Cl [Compound No. 48, N-(4-(1-adamantyl)-2-methylphenyl)-2-chloro-5-nitrobenzenesulfonamide]	238	100	100
Cc1cc(C23CC4CC(CC(C4)C2)C3)ccc1NS(=O)(=O)c1ccccc1Cl [compound 25]	200	89	93
O=C(Nc1ccc(C23CC4CC(CC(C4)C2)C3)cc1)c1cc([N+](=O)[O-])ccc1F [compound 93]	224 to 228	100	100
O=C(Nc1nc(-c2ccc(Cl)cc2)cs1)c1cc([N+](=O)[O-])ccc1Cl [compound 141]	217 to 221	100	100
Cc1cc(C23CC4CC(CC(C4)C2)C3)ccc1NC(=O)c1cc([N+](=O)[O-])ccc1F [compound 45]	198	99	99
O=C(Nc1ccc(Oc2ccc(C(F)(F)F)cn2)c(Cl)c1)c1ccccc1O [compound 15]	165 to 167	99	100

SMILES	melting point [°C]	inhibition at 100 ppm [1] [%]	inhibition at 100 ppm [2] [%]
Cc1cc(C23CC4CC(CC(C4)C2)C3)ccc1NC(=O)c1cccc(C(=O)O)c1 [compound 35]	232	100	100
O=C(Nc1ccc(CSc2ccccc2)cc1)c1cc([N+](=O)[O-])ccc1Cl [compound 79]	176 to 180	62	90
O=C(Nc1ccc(Sc2ncc(C(F)(F)F)cc2Cl)cc1)c1cc([N+](=O)[O-])ccc1Cl [compound 59]	174	100	100
O=C(Nc1ccc(Oc2ccc(C(F)(F)F)cn2)c(Cl)c1)c1cccc(Cl)c1 [compound 6]	160 to 161	100	100
COc1ccc([N+](=O)[O-])c(OC)c1C(=O)Nc1cc(Cl)cc(Cl)c1 [Compound No. 4]	173	47	76
Cc1cc(C23CC4CC(CC(C4)C2)C3)ccc1NC(=O)c1cc(C#N)ccc1Cl [compound 76]	184 to 187	96	96
CC(=O)Nc1cc(NC(=O)c2cc([N+](=O)[O-])ccc2Cl)ccc1Oc1ncc(C(F)(F)F)cc1Cl [compound 125]	203 to 205	100	100
COC(=O)c1cccc(C(=O)Nc2ccc(C34CC5CC(CC(C5)C3)C4)cc2C)c1 [compound 34]	184	88	97
O=[N+]([O-])c1ccc(Cl)c(S(=O)(=O)Nc2ccc(Sc3ncc(C(F)(F)F)cc3Cl)cc2)c1 [compound 90]	224 to 226	100	100
O=[N+]([O-])c1ccc(Cl)c(S(=O)(=O)Nc2ccc(Oc3ccccc3)cc2)c1 [compound 49]	148	100	100
O=C(Nc1ccc(C23CC4CC(CC(C4)C2)C3)cc1)c1cc([N+](=O)[O-])ccc1Br [compound 94]	273 to 275	85	53
Cc1cc(C23CC4CC(CC(C4)C2)C3)ccc1NC(=O)c1cc(S(C)(=O)=O)ccc1Cl [compound 75]	96 to 100	100	100
O=C(Nc1cccc(Oc2ccccc2)c1)c1cc([N+](=O)[O-])ccc1Cl [compound 40]	103	100	100
COc1ccc(NC(=O)c2cc([N+](=O)[O-])ccc2Cl)cc1 [compound 28]	154	100	100
O=C(Nc1ccc(Nc2ncc(C(F)(F)F)cc2Cl)cc1)c1cc([N+](=O)[O-])ccc1Cl [compound 132]	215 to 218	99	100
O=C(Nc1ccc(=O)n(-c2ncc(C(F)(F)F)cc2Cl)c1)c1cc([N+](=O)[O-])ccc1Cl [compound 144]	116	99	100
COC(=O)c1cc(Oc2ncc(C(F)(F)F)cc2Cl)ccc1NC(=O)c1cc([N+](=O)[O-])ccc1Cl [compound 100]	154 to 158	92	93
